The values that follow come from patent US10294262B2, “7-deazapurine nucleosides for therapeutic uses” (Institute of Organic Chemistry and Biochemistry ASCR, V.V.I., priority 2009, dated 2019).

The test system of one assay is human tumor cell lines. The assay is described as follows: Tests A and B, all tumor cell lines together. The format is cell-based. To be noted: read-out: CC50 Geometric mean all. How it is done:
(§1) • 1. […] Fix one plate of each cell line with TCA. […] Discard TCA from the plates by flicking them gently. […] Store the plates at room temperature. These plates represent cell counts on day zero. • 4. […] Add 50 μL of the diluted compounds per well. […] Fix the plates with TCA. […] Discard TCA from the plates by flicking them gently. […] Leave at room temperature for 30 minutes. • 9. Flick the plates gently to discard SRB.
Plates were incubated for 5 days with tested compounds.

In assay [1] the test system is MT-4 T-lymphoid cell line. The assay is described as follows: Test B: Cytostatic cell culture assay (CC50), CellTiter Glo, lymphoid tumor cell lines. To be noted: Homo sapiens, MT4, 120 h, read-out: CC50 T-lymphoid MT-4. (ATP-based viability assays read luminescence as a measure of living cells.)
Protocol: Test B: Cytostatic Cell Culture Assay (CC50) for Lymphoid Tumor Cell Lines
This test is typically performed with cell lines that are derived from hematological tumors and grow in suspension. An example of such cell line is human MT-4 T-lymphoid cell line used for the determination of cytostatic activity of tested compounds. […] Cells were passaged in suspension twice a week and maintained at densities below 500,000 cells/mL. For CC50 determination, cells were seeded into 384-well plates at 2,000 cells/well in 20 μL of culture medium. Compounds were serially diluted in culture medium and added in triplicate to a final assay volume of 40 μL/well. Plates were incubated for 5 days with tested compounds. At the end of incubation, cell viability was determined by addition of 40 μL of CellTiter Glo reagent followed by a luminescence read-out.
Data analysis and CC50 value calculations were done using GraphPad Prism software (GraphPad Software, San Diego, Calif.) by applying nonlinear regression.
Another assay deals with Du145. The assay is described as follows: Test A: Cytostatic cell culture assay (CC50), SRB, solid tumor cell lines. It counts as cell-based. To be noted: Homo sapiens, DU-145, 120 h, read-out: CC50 Prostate Du145. As to the method: (§2) Gemcitabine is obtained from Moravek Biochemicals (Brea, Calif.)
as §1

For a further assay, the system named is HS578. Described as above. The format is cell-based. As to conditions: Homo sapiens, Hs578, 120 h, read-out: CC50 Breast HS578. As to the method:
as §2, §1

A further assay relates to HCT116. The assay is described as above. The format is cell-based. To be noted: Homo sapiens, HCT-116, 120 h, read-out: CC50 Colon HCT116. How it is done:
as §2, §1

Another assay has as its system NCI H23. The description is as above. The format is cell-based. As to conditions: Homo sapiens, NCI-H23, 120 h, read-out: CC50 Lung NCI H23. How it is done: as §2, §1
A further assay has as its system PC3. Described as above. The format is cell-based. As to conditions: Homo sapiens, PC-3, 120 h, read-out: CC50 Prostate PC3. How it is done:
as §2, §1

Consider `CSc1ccc(-c2cn([C@@H]3O[C@H](CO)[C@@H](O)[C@H]3O)c3ncnc(N)c23)cc1` [Compound 2c, 4-Amino-5-[4-(methylthio)phenyl]-7-(β-D-ribofuranosyl)-7H-pyrrolo[2,3-d]pyrimidine], for which the CC50 in the assay with human tumor cell lines came to 1520 nM; in assay [1], 4400 nM; in the assay with Du145, 1870 nM; with HS578, 1970 nM; in the assay on HCT116 it was 1290 nM; with NCI H23, 390 nM.

Take `Nc1ncnc2c1c(-c1cccc3ccccc13)cn2[C@@H]1O[C@H](CO)C(O)C1O` (stereo partly drawn) [Compound 2d, 4-Amino-5-(naphtalen-1-yl)-7-(β-D-ribofuranosyl)-7H-pyrrolo[2,3-d]pyrimidine]: the half-maximal cytotoxic concentration (CC50) with human tumor cell lines, in the assay with Du145, in the assay with HS578, with HCT116 and in the assay with NCI H23 was over 10000 nM in each case.

Turning to `Nc1ncnc2c1c(-c1ccc3ccccc3c1)cn2[C@@H]1O[C@H](CO)C(O)C1O` (stereo partly drawn) [Compound 2e, 4-Amino-5-(naphtalen-2-yl)-7-(β-D-ribofuranosyl)-7H-pyrrolo[2,3-d]pyrimidine], the CC50 was found to be 2880 nM with human tumor cell lines; 1050 nM in the assay with Du145; 2160 nM in the assay on HS578; 5670 nM in the assay on HCT116; 5350 nM with NCI H23.

As to `C#Cc1cn([C@@H]2O[C@H](CO)[C@@H](O)[C@H]2O)c2ncnc(N)c12` [Compound 2o, 4-Amino-5-ethynyl-7-(β-D-ribofuranosyl)-7H-pyrrolo[2,3-d]pyrimidine], the CC50 is 1.9 nM in the assay on human tumor cell lines; 1 nM in assay [1]; 1 nM with HS578; 11 nM with PC3; 2 nM in the assay on HCT116; 1 nM in the assay on NCI H23.

Regarding `Nc1ncnc2c1c(-c1nccs1)cn2[C@@H]1O[C@H](CO)[C@@H](O)[C@H]1O` [Compound 2q, 4-Amino-7-(β-D-ribofuranosyl)-5-(thiazol-2-yl)-7H-pyrrolo[2,3-d]pyrimidine], the CC50 with human tumor cell lines is 25.6 nM; in assay [1] it was 42 nM; in the assay on HS578 it was 15 nM; in the assay with PC3 it was 42 nM; in the assay with HCT116, 93 nM; with NCI H23 it was 5 nM.

Regarding `Nc1ncnc2c1c(-c1c[nH]cn1)cn2[C@@H]1O[C@H](CO)[C@@H](O)[C@H]1O` [Compound 2r, 4-Amino-5-(1H-imidazol-4-yl)-7-(β-D-ribofuranosyl)-7H-pyrrolo[2,3-d]pyrimidine], the CC50 in the assay with human tumor cell lines was determined as 3.8 nM; in assay [1], 28 nM; with HS578 it was 2 nM; in the assay on PC3, 2 nM; in the assay with HCT116, 3 nM; in the assay on NCI H23 it was 2 nM.

Broadly, the CC50 is the concentration that lowers cell viability or growth by half.
